Test results reported in US20240367095A1, “TERTIARY ALKANOLAMINE FOR GAS TREATING” (Dow Global Technologies LLC, priority 2021, published 2024).

Assay: physchem

Row | pKa | Structure (SMILES)
1 | 8.53 | CC(CO)N(C)CC(O)CO (stereo not shown) [HMEMAPD, 3-[(2-hydroxy-1-methylethyl)methylamino]-1,2-propanediol]
2 | 8.62 | CCN(CC(O)CO)C(C)CO (stereo not shown) [EHMEAPD, 3-[ethyl(2-hydroxy-1-methylethyl)amino]-1,2-propanediol]
3 | 8.54 | CCCCN(CCO)CC(O)CO (stereo not shown) [HEBAPD]
4 | 8.54 | CCN(CCO)CC(O)CO (stereo not shown) [HEEAPD]
5 | 8.53 | CCC(CO)N(C)CC(O)CO (stereo not shown) [HMPMAPD, 3-[[1-(hydroxymethyl)propyl]methylamino]-1,2-propanediol]
6 | 8.54 | CCCN(CCO)CC(O)CO (stereo not shown) [HEPAPD]
7 | 8.45 | CN(CCO)CC(O)CO (stereo not shown) [HEMAPD]
